Patent publication US8889704B2 (Array BioPharma Inc., priority 2011, dated 2014)
Structures can show the parent of a compound that is named as a salt.

Tests used:
Assay type in all cases: biochemical
PIM-1 = PIM-1 (Homo sapiens, UniProt P11309); experiment: Enzyme PIM-1 Assay ([33P]ATP incorporation into PIM2tide, filter plate); details: averaged IC50; 35 μM ATP, 7.5 μM PIM2tide, 0.25 nM PIM-1, 60 min at 22° C.
Procedure, shortened: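 Radiometric assay: 0.25 nM PIM-1 phosphorylates 7.5 μM PIM2tide with 35 μM [γ-33P]ATP in 20 mM MOPS pH 7.4, 10 mM MgCl2, 1 mM DTT, 0.005% Tween-20, 60 min at 22 °C. Product captured on P81 filters, scintillation counted; 10-point 3-fold curve from 10 μM top, 2% DMSO, IC50 by 4-parameter logistic fit of POC.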

[1] = biological target: T1, GST-tagged recombinant full-length human Pim-2 (Homo sapiens, UniProt Q9P1W9); experiment: PIM-2 Assay (as Example A); details: averaged IC50; 4 μM ATP, 1.0 μM PIM2tide, 1.5 nM Pim-2
T1 construct: GST-tagged recombinant full-length human Pim-2; GST
Procedure, shortened: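 Radiometric filter-binding assay: GST-tagged full-length human Pim-2 (1.5 nM) phosphorylates 1.0 μM PIM2tide with 4 μM [γ-33P]ATP for 60 min at 22 °C in pH 7.4 MOPS buffer, 2% DMSO. 10-point 3-fold dilutions from 10 μM top dose; IC50 from 4-parameter fit of percent of control.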

recombinant rat PIM-3 = recombinant rat PIM-3 (Rattus norvegicus, UniProt O70444); experiment: PIM-3 Assay (as Example A); details: averaged IC50; 30 μM ATP, 3.75 μM PIM2tide, 0.5 nM PIM-3
Procedure, shortened: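 Recombinant rat PIM-3 (0.5 nM) with 3.75 μM PIM2tide and 30 μM [γ-33P]ATP in MOPS pH 7.4 buffer, 60 min at 22 °C; labelled peptide captured on phosphocellulose filters and counted by scintillation. 10-point curve (top dose 10 μM, 2% DMSO); IC50 from 4-parameter fit of percent of control.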

PIM-1, sequence (P11309 whole entry, species assumed): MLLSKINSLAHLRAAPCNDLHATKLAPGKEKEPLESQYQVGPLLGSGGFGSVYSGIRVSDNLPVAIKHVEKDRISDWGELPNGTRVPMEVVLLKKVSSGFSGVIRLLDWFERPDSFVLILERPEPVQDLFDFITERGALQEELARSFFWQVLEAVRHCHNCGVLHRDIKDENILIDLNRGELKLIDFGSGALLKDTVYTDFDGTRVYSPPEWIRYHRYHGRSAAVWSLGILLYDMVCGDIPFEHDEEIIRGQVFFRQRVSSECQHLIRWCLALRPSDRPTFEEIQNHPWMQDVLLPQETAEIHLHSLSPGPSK
T1 sequence (Q9P1W9 whole entry): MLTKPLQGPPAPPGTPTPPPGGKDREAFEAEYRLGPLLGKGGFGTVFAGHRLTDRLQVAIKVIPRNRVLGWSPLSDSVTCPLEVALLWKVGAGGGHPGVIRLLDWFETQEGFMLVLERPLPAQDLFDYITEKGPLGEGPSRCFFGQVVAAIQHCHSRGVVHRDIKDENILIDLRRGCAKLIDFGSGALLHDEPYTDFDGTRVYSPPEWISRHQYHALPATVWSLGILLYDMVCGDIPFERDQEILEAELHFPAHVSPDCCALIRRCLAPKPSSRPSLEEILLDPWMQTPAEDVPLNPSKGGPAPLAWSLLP

Row | SMILES | IC50 (PIM-1) [nM] | IC50 [1] [nM] | IC50 (recombinant rat PIM-3) [nM]
1 | C[C@]1(N)CCN([C@@H](c2ccc3nnc(-c4ccc5cccc(C6CC6)c5n4)n3c2)C(F)(F)F)C1 [Example 96, (S)-1-((S)-1-(3-(8-cyclopropylquinolin-2-yl)-[1,2,4]triazolo[4,3-a]pyridin-6-yl)-2,2,2-trifluoroethyl)-3-methylpyrrolidin-3-amine dihydrochloride] | 0.12 | 5.4 | 0.5
2 | C[C@]1(N)CCN([C@H](c2ccc3nnc(-c4ccc5cccc(C6CC6)c5n4)n3c2)C(F)(F)F)C1 [Example 97, (S)-1-((R)-1-(3-(8-cyclopropylquinolin-2-yl)-[1,2,4]triazolo[4,3-a]pyridin-6-yl)-2,2,2-trifluoroethyl)-3-methylpyrrolidin-3-amine dihydrochloride] | 0.11 | 65 | 8.1
3 | COCCOc1cc(F)cc2ccc(-c3nnc4ccc([C@@H](N5CC[C@H](N)C5)C(F)(F)F)cn34)nc12 [Example 98, (S)-1-((R)-2,2,2-trifluoro-1-(3-(6-fluoro-8-(2-methoxyethoxy)quinolin-2-yl)-[1,2,4]triazolo[4,3-a]pyridin-6-yl)ethyl)pyrrolidin-3-amine hydrochloride] | 0.38 | > 100 | 1.8
4 | CC(C)(C#N)c1cccc2ccc(-c3nnc4ccc([C@@H](N5CC[C@H](N)C5)C(F)(F)F)cn34)nc12 [Example 99, 2-(2-(6-((R)-1-((S)-3-aminopyrrolidin-1-yl)-2,2,2-trifluoroethyl)-[1,2,4]triazolo[4,3-a]pyridin-3-yl)quinolin-8-yl)-2-methylpropanenitrile dihydrochloride] | 0.11 | 55 | 0.6
5 | CC(C)(C)c1cccc2ccc(-c3nnc4ccc([C@@H](N5CC[C@H](NCCO)C5)C(F)(F)F)cn34)nc12 [Example 100, 2-((S)-1-((R)-1-(3-(8-tert-butylquinolin-2-yl)-[1,2,4]triazolo[4,3-a]pyridin-6-yl)-2,2,2-trifluoroethyl)pyrrolidin-3-ylamino)ethanol dihydrochloride] | 0.1 | 6.5 | 1.1
6 | CC(C)Oc1cccc2ccc(-c3nnc4ccc([C@@H](N5CC[C@H](NCCO)C5)C(F)(F)F)cn34)nc12 [Example 101, 2-((S)-1-((R)-2,2,2-trifluoro-1-(3-(8-isopropoxyquinolin-2-yl)-[1,2,4]triazolo[4,3-a]pyridin-6-yl)ethyl)pyrrolidin-3-ylamino)ethanol dihydrochloride] | 0.15 | 40 | 0.8
7 | CC(C)Oc1cc(F)cc2ccc(-c3nnc4ccc([C@@H](N5CC[C@H](NCCO)C5)C(F)(F)F)cn34)nc12 [Example 102, 2-((S)-1-((R)-2,2,2-trifluoro-1-(3-(6-fluoro-8-isopropoxyquinolin-2-yl)-[1,2,4]triazolo[4,3-a]pyridin-6-yl)ethyl)pyrrolidin-3-ylamino)ethanol dihydrochloride] | 0.19 | 30 | 0.7
8 | CC(C)Oc1cccc2ccc(-c3nnc4ccc([C@H](N5CC[C@@H](O)C5)C(F)(F)F)cn34)nc12 [Example 103, (R)-1-((S)-2,2,2-trifluoro-1-(3-(8-isopropoxyquinolin-2-yl)-[1,2,4]triazolo[4,3-a]pyridin-6-yl)ethyl)pyrrolidin-3-ol] | 0.1 | > 100 | 3.1
9 | CC(C)(C)c1cccc2ccc(-c3nnc4ccc([C@H](N5CC[C@@H](O)C5)C(F)(F)F)cn34)nc12 [Example 104] | 0.17 | > 100 | 12
10 | COCC(C)(C)c1cccc2ccc(-c3nnc4ccc([C@@H](N5CC[C@H](N)C5)C(F)(F)F)cn34)nc12 [Example 105, (S)-1-((R)-2,2,2-trifluoro-1-(3-(8-(1-methoxy-2-methylpropan-2-yl)quinolin-2-yl)-[1,2,4]triazolo[4,3-a]pyridin-6-yl)ethyl)pyrrolidin-3-amine dihydrochloride] | 0.04 | 13 | 0.7
11 | CC(C)C(=O)Nc1ccc2ccc(-c3nnc4ccc([C@@H](N5CC[C@H](O)C5)C(F)(F)F)cn34)nc2c1 [Example 106, N-(2-(6-((R)-2,2,2-trifluoro-1-((S)-3-hydroxypyrrolidin-1-yl)ethyl)-[1,2,4]triazolo[4,3-a]pyridin-3-yl)quinolin-7-yl)isobutyramide] | 1.62 | > 100 | 3.4
12 | CC(C)(C)C(=O)Nc1ccc2ccc(-c3nnc4ccc([C@@H](N5CC[C@H](O)C5)C(F)(F)F)cn34)nc2c1 [Example 107, N-(2-(6-((R)-2,2,2-trifluoro-1-((S)-3-hydroxypyrrolidin-1-yl)ethyl)-[1,2,4]triazolo[4,3-a]pyridin-3-yl)quinolin-7-yl)pivalamide] | 0.48 | > 100 | 0.9
13 | COCCOc1c(F)ccc2ccc(-c3nnc4ccc([C@@H](N5CC[C@H](N)C5)C(F)(F)F)cn34)nc12 [Example 108, (S)-1-((R)-2,2,2-trifluoro-1-(3-(7-fluoro-8-(2-methoxyethoxy)quinolin-2-yl)-[1,2,4]triazolo[4,3-a]pyridin-6-yl)ethyl)pyrrolidin-3-amine hydrochloride] | 0.49 | > 100 | 4.7

More lines, now with the values ahead:

Row | IC50 (PIM-1) [nM] | IC50 [1] [nM] | IC50 (recombinant rat PIM-3) [nM] | SMILES
14 | 0.28 | > 100 | 5.5 | CC(C)Oc1c(F)ccc2ccc(-c3nnc4ccc([C@@H](N5CC[C@H](N)C5)C(F)(F)F)cn34)nc12 [Example 109, (S)-1-((R)-2,2,2-trifluoro-1-(3-(7-fluoro-8-isopropoxyquinolin-2-yl)-[1,2,4]triazolo[4,3-a]pyridin-6-yl)ethyl)pyrrolidin-3-amine hydrochloride]
15 | 0.19 | 95 | 1.8 | COCC(C)(COC)c1cccc2ccc(-c3nnc4ccc([C@@H](N5CC[C@H](N)C5)C(F)(F)F)cn34)nc12 [Example 110, (S)-1-((R)-1-(3-(8-(1,3-dimethoxy-2-methylpropan-2-yl)quinolin-2-yl)-[1,2,4]triazolo[4,3-a]pyridin-6-yl)-2,2,2-trifluoroethyl)pyrrolidin-3-amine dihydrochloride]
16 | 0.07 | 52 | 1 | COCCc1cccc2ccc(-c3nnc4ccc([C@@H](N5CC[C@H](N)C5)C(F)(F)F)cn34)nc12 [Example 111, (S)-1-((R)-2,2,2-trifluoro-1-(3-(8-(2-methoxyethyl)quinolin-2-yl)-[1,2,4]triazolo[4,3-a]pyridin-6-yl)ethyl)pyrrolidin-3-amine dihydrochloride]
17 | 0.12 | 21 | 1.4 | COCC1(c2cccc3ccc(-c4nnc5ccc([C@@H](N6CC[C@H](N)C6)C(F)(F)F)cn45)nc23)CC1 [Example 112, (S)-1-((R)-2,2,2-trifluoro-1-(3-(8-(1-(methoxymethyl)cyclopropyl)quinolin-2-yl)-[1,2,4]triazolo[4,3-a]pyridin-6-yl)ethyl)pyrrolidin-3-amine dihydrochloride]
18 | 0.05 | > 100 | 2.3 | COc1cc2nc(-c3nnc4ccc([C@@H](N5CC[C@H](N)C5)C(F)(F)F)cn34)ccc2cc1F [Example 113, (S)-1-((R)-2,2,2-trifluoro-1-(3-(6-fluoro-7-methoxyquinolin-2-yl)-[1,2,4]triazolo[4,3-a]pyridin-6-yl)ethyl)pyrrolidin-3-amine hydrochloride]
19 | 0.06 | 5.6 | 0.3 | N[C@H]1CCN([C@H](c2ccc3nnc(-c4ccc5cccc(C6(CO)CC6)c5n4)n3c2)C(F)(F)F)C1 [Example 114, (1-(2-(6-((R)-1-((S)-3-aminopyrrolidin-1-yl)-2,2,2-trifluoroethyl)-[1,2,4]triazolo[4,3-a]pyridin-3-yl)quinolin-8-yl)cyclopropyl)methanol dihydrochloride]
20 | 0.24 | 76 | 1.8 | Cc1c(OC(C)C)ccc2ccc(-c3nnc4ccc([C@@H](N5CC[C@H](N)C5)C(F)(F)F)cn34)nc12 [Example 116, (S)-1-((R)-2,2,2-trifluoro-1-(3-(7-isopropoxy-8-methylquinolin-2-yl)-[1,2,4]triazolo[4,3-a]pyridin-6-yl)ethyl)pyrrolidin-3-amine hydrochloride]
21 | 0.21 | 210 | 0.4 | COCCOc1ccc2ccc(-c3nnc4ccc([C@@H](N5CC[C@H](N)C5)C(F)(F)F)cn34)nc2c1C [Example 117, (S)-1-((R)-2,2,2-trifluoro-1-(3-(7-(2-methoxyethoxy)-8-methylquinolin-2-yl)-[1,2,4]triazolo[4,3-a]pyridin-6-yl)ethyl)pyrrolidin-3-amine hydrochloride]
22 | 0.11 | 72 | 0.8 | COCC(C)Oc1cccc2ccc(-c3nnc4ccc([C@@H](N5CC[C@H](N)C5)C(F)(F)F)cn34)nc12 (stereo partly drawn) [Example 118, (3S)-1-((1R)-2,2,2-trifluoro-1-(3-(8-(1-methoxypropan-2-yloxy)quinolin-2-yl)-[1,2,4]triazolo[4,3-a]pyridin-6-yl)ethyl)pyrrolidin-3-amine hydrochloride]
